In patent US4399136A, “Pyrazolopyridazine antihypertensives” (Hoffmann-La Roche Inc., priority 1980, dated 1983) one finds IC50 data, which are given here for three compounds.

The assay deals with T1, angiotensin converting enzyme, extracted from rabbit lung (Oryctolagus cuniculus, UniProt P12822).
T1 construct: extracted from rabbit lung; from tissue; host or cells: rabbit lung
T1 sequence (P12822 34-1310): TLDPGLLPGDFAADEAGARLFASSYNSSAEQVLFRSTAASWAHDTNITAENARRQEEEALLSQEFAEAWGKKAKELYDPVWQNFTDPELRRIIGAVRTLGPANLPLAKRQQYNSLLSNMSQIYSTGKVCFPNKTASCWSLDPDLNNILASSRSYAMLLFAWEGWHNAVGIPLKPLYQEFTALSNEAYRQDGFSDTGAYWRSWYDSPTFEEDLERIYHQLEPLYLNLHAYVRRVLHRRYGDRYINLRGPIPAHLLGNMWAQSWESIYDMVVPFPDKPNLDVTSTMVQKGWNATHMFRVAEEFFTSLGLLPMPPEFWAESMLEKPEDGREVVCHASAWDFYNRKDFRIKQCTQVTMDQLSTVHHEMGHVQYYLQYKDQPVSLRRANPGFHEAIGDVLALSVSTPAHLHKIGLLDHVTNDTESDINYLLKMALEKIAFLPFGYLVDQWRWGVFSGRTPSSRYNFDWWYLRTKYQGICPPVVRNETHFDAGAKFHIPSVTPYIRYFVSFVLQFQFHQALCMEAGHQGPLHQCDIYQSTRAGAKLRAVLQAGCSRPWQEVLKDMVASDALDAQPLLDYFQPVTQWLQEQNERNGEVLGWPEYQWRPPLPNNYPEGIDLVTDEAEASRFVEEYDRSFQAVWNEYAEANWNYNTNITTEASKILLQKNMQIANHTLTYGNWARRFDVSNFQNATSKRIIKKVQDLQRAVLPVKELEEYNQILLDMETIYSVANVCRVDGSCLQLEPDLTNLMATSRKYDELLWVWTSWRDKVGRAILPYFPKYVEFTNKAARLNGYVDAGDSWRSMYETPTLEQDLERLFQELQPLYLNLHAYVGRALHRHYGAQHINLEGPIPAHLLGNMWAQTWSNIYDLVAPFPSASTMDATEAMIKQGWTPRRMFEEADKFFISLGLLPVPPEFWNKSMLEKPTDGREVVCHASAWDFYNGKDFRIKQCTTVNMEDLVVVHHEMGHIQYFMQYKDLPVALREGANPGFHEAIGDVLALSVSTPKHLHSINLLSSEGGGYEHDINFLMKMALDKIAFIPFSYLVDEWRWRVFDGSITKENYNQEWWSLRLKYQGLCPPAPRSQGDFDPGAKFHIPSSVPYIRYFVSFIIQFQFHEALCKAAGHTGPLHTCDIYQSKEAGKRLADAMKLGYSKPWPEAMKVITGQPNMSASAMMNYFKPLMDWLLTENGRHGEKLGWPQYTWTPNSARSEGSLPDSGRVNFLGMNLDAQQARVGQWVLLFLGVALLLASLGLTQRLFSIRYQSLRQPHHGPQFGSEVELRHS
Briefly: in vitro inhibition of angiotensin converting enzyme (cleavage of hippuryl-histidyl-leucine). In kind it is biochemical. The following applies: hippuryl-histidyl-leucine 2 mM; rabbit lung ACE; pH 8.3; 25 minutes at 37° C. As for the experimental part: The activity of the pyrazolopyridazine derivatives of formula I in inhibiting angiotensin converting enzyme in vitro can be determined by the following test.
The method used is based on the method of Cushman and Cheung (Biochem. Pharmacol., 20, 1637-1648) incorporating the modifications introduced by Hayakari et al. (Anal. Biochem., 84, 361-369). The substrate (hippuryl-histidyl-leucine, 2 mM) is incubated with angiotensin converting enzyme, extracted from rabbit lung, in the presence or absence of various concentrations of test substance in potassium phosphate buffer (pH 8.3; 100 mM) containing sodium chloride (300 mM) for 25 minutes at 37° C. (total […] 500 μl). The reaction is terminated by the addition of 3 ml of potassium phosphate buffer (pH 8.3; 200 mM) at 0° C. 2,4,6-Trichloro-s-triazine (3%) in 1.5 ml of dioxane is added and the mixture is agitated until the yellow chromophore has developed fully. The samples are then centrifuged to remove any precipitate which has formed. The yellow chromophore formed by the reaction of the 2,4,6-trichloro-s-triazine with free hippuric acid is measured spectrophotometrically at 382 nm. IC50 values are defined as the concentration of test substance which reduces by 50% the cleavage of hippurly-histidyl-leucine by angiotensin converting enzyme under the aforementioned conditions.

Structures are written as SMILES.

Turning to `CC1(CCS)C(=O)N2CCCC(C(=O)O)N2C1=O` (stereo not drawn) [Compound A, Hexahydro-2-(2-mercaptoethyl)-2-methyl-1,3-dioxo-1H-pyrazolo[1,2-a]pyridazine-5-carboxylic acid], the IC50 was 100 nM.

As to `CC1(CCS)CN2CCCC(C(=O)O)N2C1=O` (stereo not drawn) [Compound B, Hexahydro-2-(2-mercaptoethyl)-2-methyl-3-oxo-1H-pyrazolo[1,2-a]pyridazine-5-carboxylic acid], the IC50 amounted to 100 nM.

Compound `CCC1(CCS)C(=O)N2CC=CC(C(=O)O)N2C1=O` (stereo not drawn) [Compound C, 2-Ethyl-2,3,5,8-tetrahydro-2-(2-mercaptoethyl)-1,3-dioxo-1H-pyrazolo-[1,2-a]pyridazine-5-carboxylic acid] showed an IC50 of 43 nM.

In general, IC50 refers to the concentration needed to halve the response being measured.
